Target: human orexin 2 receptor (Homo sapiens (Human), UniProt O43614)
Assay: Human orexin 2 receptor radioligand binding ([3H]-EMPA competition)
Settings: HEK293 stably expressing human orexin 2 receptor; 2 nM [3H]-EMPA; averages of 2-20 runs; read-out: hOX2 Ki
Description: The in vitro affinity of the compounds of the invention for the rat/human orexin 1 and human orexin 2 receptors was determined by competitive radioligand binding using [^3H](1-(5-(2-fluoro-phenyl)-2-methyl-thiazol-4-yl)-1-((S)-2-(5-phenyl-(1,3,4)oxadiazol-2-ylmethyl)-pyrrolidin-1-yl)-methanone) (Langmead et al., 2004) and [^3H]EMPA (n-ethyl-2[96-methoxy-pyridin-3-yl)-(toluene-2-sulfonyl)-amino]-N-pyridin-3-ylmethyl acetamide), respectively (Langmead et al., 2004, British Journal of Pharmacology 141:340-346; Malherbe et al., 2004, British Journal of Pharmacology 156:1326-41).
Data are analyzed using pc-Sandy macro and graphed on Graphpad Prism 5. For analysis, each concentration point is averaged from triplicate values and the averaged values are plotted on Graphpad Prism. The IC50 was determined by applying the following equation (GraphPad Prism 5.0, San Diego) for one site competition where X=log (concentration) and Y=specific binding. Top denotes the total [^3H]— (1-(5-(2-fluoro-phenyl)-2-methyl-thiazol-4-yl)-1-((S)-2-(5-phenyl-(1,3,4)oxadiazol-2-ylmethyl)-pyrrolidin-1-yl)-methanone) binding, bottom denotes the nonspecific [^3H]— (1-(5-(2-fluoro-phenyl)-2-methyl-thiazol-4-yl)-1-((S)-2-(5-phenyl-(1,3,4)oxadiazol-2-ylmethyl)-pyrrolidin-1-yl)-methanone) binding. Graphpad Prism calculates Ki value from IC50 and the pre-determined Kd values for [^3H]— (1-(5-(2-fluoro-phenyl)-2-methyl-thiazol-4-yl)-1-((S)-2-(5-phenyl-(1,3,4)oxadiazol-2-ylmethyl)-pyrrolidin-1-yl)-methanone) and [^3H]-EMPA. The Ki for each compound is then uploaded into 3DX. Each run comprises individual compounds in triplicate. The data in Table 1 and Table 2 represent averages from between 2-20 runs
Human Orexin 2 Receptor Radioligand Binding Studies
HEK293 stably expressing human orexin 2 receptor (Genebank accession number NM_001526) were grown to confluency in DMEM (Hyclone, cat # SH30022), 10% FBS, 1× Pen/Strep, 1× NaPyruvate, 10 mM HEPES, 600 μg/ml G418 media on 150 cm^2 tissue culture plates, washed with 5 mM EDTA in PBS (HyClone Dulbecco's Phosphate Buffered Saline 1× with Calcium and Magnesium, Cat # SH30264.01, hereafter referred to simply as PBS) and scraped into 50 ml tubes. After centrifugation (2K×G, 5 min at 4° C.), the supernatant was aspirated and the pellets frozen and stored at −80° C. Cells were resuspended in PBS in the presence of 1 tablet of protease inhibitor cocktail (Roche, Cat. #11836145001) per 50 mL. […] Compounds were solubilized in 100% DMSO (Acros Organics, Cat. #61042-1000) and tested over a range of 7 concentration (from 0.1 nM to 10 μM). The final concentration of DMSO in the reactions is equal to or less than 0.1%. Total and nonspecific binding was determined in the absence and presence of 10 μM almorexant. The total volume of each reaction is 200 μL (20 μL of diluted compounds, 80 μL of [^3H]-EMPA diluted in PBS and 100 μL of the cell suspension). Reactions were run for 60 min at room temperature and terminated by filtration through GF/C filter plates (PerkinElmer, Cat. #6005174) presoaked in 0.3% polyethylenimine using the cell harvester (PerkinElmer Filtermate). The plates were washed 3 times by aspirating 30 ml PBS through the plates. Plates were dried in 55° C. oven for 60 min, scintillation fluid was added, and the radioactivity was counted on a Topcount (Packard).

Sequence of human orexin 2 receptor (O43614 whole entry): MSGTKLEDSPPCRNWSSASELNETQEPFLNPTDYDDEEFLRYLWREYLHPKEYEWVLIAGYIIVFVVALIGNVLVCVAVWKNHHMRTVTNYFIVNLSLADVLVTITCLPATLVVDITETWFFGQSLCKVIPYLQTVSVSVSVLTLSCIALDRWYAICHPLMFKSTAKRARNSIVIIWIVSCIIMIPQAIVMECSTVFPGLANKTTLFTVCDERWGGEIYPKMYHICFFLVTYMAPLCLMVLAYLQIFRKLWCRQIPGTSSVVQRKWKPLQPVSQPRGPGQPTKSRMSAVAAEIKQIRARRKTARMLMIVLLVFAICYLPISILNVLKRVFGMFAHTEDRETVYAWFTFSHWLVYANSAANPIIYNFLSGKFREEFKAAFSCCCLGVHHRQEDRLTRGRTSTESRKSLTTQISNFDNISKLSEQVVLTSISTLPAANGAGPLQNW

Compound | Ki [µM]
Cc1ccc(C(=O)N2[C@H](C)[C@H]3C[C@@H](Oc4cnc(C(F)(F)F)cn4)[C@@H]2C3)c(-n2nccn2)n1 (relative stereo) [Example 49, (6-methyl-2-(2H-1,2,3-triazol-2-yl)pyridin-3-yl)((1S*,3R*,4R*,6R*)-3-methyl-6-((5-(trifluoromethyl)pyrazin-2-yl)oxy)-2-azabicyclo[2.2.1]heptan-2-yl)methanone] | > 10
Cc1ccc(-n2nccn2)c(C(=O)N2[C@H](C)[C@H]3C[C@@H](Oc4cnc5ccccc5c4)[C@@H]2C3)n1 (relative stereo) [Example 185, (6-methyl-3-(2H-1,2,3-triazol-2-yl)pyridin-2-yl)((1S*,3R*,4R*,6R*)-3-methyl-6-(quinolin-3-yloxy)-2-azabicyclo[2.2.1]heptan-2-yl)methanone] | 0.061
CC1C2CC(Nc3cnc(C(F)(F)F)cn3)C(C2)N1C(=O)c1ccccc1-n1nccn1 (racemic) [Example 5, (R/S)-(2-(2H-1,2,3-triazol-2-yl)phenyl)(3-methyl-6-((5-(trifluoromethyl)pyrazin-2-yl)amino)-2-azabicyclo[2.2.1]heptan-2-yl)methanone] | 0.278
C[C@@H]1[C@H]2C[C@@H](Oc3cnc(C(F)(F)F)cn3)[C@H](C2)N1C(=O)c1ccc(F)cc1-n1nccn1 (relative stereo) [Example 53, (4-fluoro-2-(2H-1,2,3-triazol-2-yl)phenyl)((1S*,3R*,4R*,6R*)-3-methyl-6-((5-(trifluoromethyl)pyrazin-2-yl)oxy)-2-azabicyclo[2.2.1]heptan-2-yl)methanone] | 7.6
CC1C2CC(Nc3cnc(C(F)(F)F)cn3)C(C2)N1C(=O)c1ccccc1-n1nccn1 (single isomer, unassigned) [Example 5A, (2-(2H-1,2,3-triazol-2-yl)phenyl)((1R*,3R*,4R*,6S*)-3-methyl-6-((5-(trifluoromethyl)pyrazin-2-yl)amino)-2-azabicyclo[2.2.1]heptan-2-yl)methanone] | > 10
C[C@@H]1[C@H]2C[C@@H](Oc3cnc4cc(F)c(F)cc4n3)[C@H](C2)N1C(=O)c1cccc(F)c1-n1nccn1 (relative stereo) [Example 190, ((1S*,3R*,4R*,6R*)-6-((6,7-difluoroquinoxalin-2-yl)oxy)-3-methyl-2-azabicyclo[2.2.1]heptan-2-yl)(3-fluoro-2-(2H-1,2,3-triazol-2-yl)phenyl)methanone] | 0.123
CCOc1ccc(C)nc1C(=O)N1[C@H](C)[C@H]2C[C@@H](Oc3cnc(C(F)(F)F)cn3)[C@@H]1C2 (relative stereo) [Example 56, (3-ethoxy-6-methylpyridin-2-yl)((1S*,3R*,4R*,6R*)-3-methyl-6-((5-(trifluoromethyl)pyrazin-2-yl)oxy)-2-azabicyclo[2.2.1]heptan-2-yl)methanone] | 7
CC1C2CC(Oc3ccc(C(F)(F)F)cn3)C(C2)N1C(=O)c1ncccc1-n1nccn1 (racemic) [Example 9, (R/S)-(3-(2H-1,2,3-triazol-2-yl)pyridin-2-yl)(3-methyl-6-((5-(trifluoromethyl)pyridin-2-yl)oxy)-2-azabicyclo[2.2.1]heptan-2-yl)methanone] | 3.7
CC1C2CC(Nc3cnc(C(F)(F)F)cn3)C(C2)N1C(=O)c1ccccc1-n1nccn1 (racemic) [Example 68, (R/S)-(2-(2H-1,2,3-triazol-2-yl)phenyl)(3-methyl-6-((5-(trifluoromethyl)pyrazin-2-yl)amino)-2-azabicyclo[2.2.1]heptan-2-yl)methanone] | 0.625
C[C@@H]1[C@H]2C[C@@H](Nc3ccc(C(F)(F)F)cn3)[C@H](C2)N1C(=O)c1cccc(F)c1-n1nccn1 (relative stereo) [Example 65, (3-fluoro-2-(2H-1,2,3-triazol-2-yl)phenyl)((1S*,3R*,4S*,6R*)-3-methyl-6-((5-(trifluoromethyl)pyridin-2-yl)amino)-2-azabicyclo[2.2.1]heptan-2-yl)methanone] | 0.183
C[C@@H]1[C@H]2C[C@@H](Oc3cnc4cc(F)c(F)cc4n3)[C@H](C2)N1C(=O)c1ccccc1-n1nccn1 (relative stereo) [Example 191, (2-(2H-1,2,3-triazol-2-yl)phenyl)((1S*,3R*,4R*,6R*)-6-((6,7-difluoroquinoxalin-2-yl)oxy)-3-methyl-2-azabicyclo[2.2.1]heptan-2-yl)methanone] | 0.072
[2H]C([2H])([2H])[C@]1([2H])[C@H]2C[C@@H](Oc3ccc(C(F)(F)F)cn3)[C@H](C2)N1C(=O)c1cc(F)ccc1-c1ncccn1 [Example 167, [(1R,2R,4S,5R)-2-deuterio-2-(trideuteriomethyl)-5-[[5-(trifluoromethyl)-2-pyridyl]oxy]-3-azabicyclo[2.2.1]heptan-3-yl]-(5-fluoro-2-pyrimidin-2-yl-phenyl)methanone] | 0.767
Cc1ccc(-n2nccn2)c(C(=O)N2C(C)C3CC(Nc4cnc(C(F)(F)F)cn4)C2C3)n1 (single isomer, unassigned) [Example 69, (R/S)-(6-methyl-3-(2H-1,2,3-triazol-2-yl)pyridin-2-yl)(3-methyl-6-((5-(trifluoromethyl)pyrazin-2-yl)amino)-2-azabicyclo[2.2.1]heptan-2-yl)methanone] | 0.345
Cc1ccc(-n2nccn2)c(C(=O)N2C(CF)C3CC(Oc4ccc(C(F)(F)F)cn4)C2C3)n1 (racemic) [Example 70] | 2
Cc1ccc(-n2nccn2)c(C(=O)N2C(CC(C)C)C3CC(Oc4ccc(C(F)(F)F)cn4)C2C3)n1 (racemic) [Example 210, (R/S)-[2-isobutyl-5-[[5-(trifluoromethyl)-2-pyridyl]oxy]-3-azabicyclo[2.2.1]heptan-3-yl]-[6-methyl-3-(triazol-2-yl)-2-pyridyl]methanone] | 1.5

Further lines, results first:

Ki [µM] | Compound
> 10 | CC1C2CC(Oc3ccc(C(F)(F)F)cn3)C(C2)N1C(=O)c1cc(F)ccc1-c1ncccn1 (single isomer, unassigned) [Example 18A, (5-fluoro-2-(pyrimidin-2-yl)phenyl)((1R*,3S*,4S*,6S*)-3-methyl-6-((5-(trifluoromethyl)pyridin-2-yl)oxy)-2-azabicyclo[2.2.1]heptan-2-yl)methanone]
0.236 | Cc1ccc(-n2nccn2)c(C(=O)N2C(C)C3CC(Nc4cnc(C(F)(F)F)cn4)C2C3)n1 (single isomer, unassigned) [Example 69B, (6-methyl-3-(2H-1,2,3-triazol-2-yl)pyridin-2-yl)((1S*,3R*,4S*,6R*)-3-methyl-6-((5-(trifluoromethyl)pyrazin-2-yl)amino)-2-azabicyclo[2.2.1]heptan-2-yl)methanone]
1.89 | CC1C2CC(Oc3ccc(C(F)(F)F)cn3)C(C2)N1C(=O)c1cccc(F)c1-c1ncc(F)cn1 (single isomer, unassigned) [Example 20B, (3-fluoro-2-(5-fluoropyrimidin-2-yl)phenyl)((1S*,3R*,4R*,6R*)-3-methyl-6-((5-(trifluoromethyl)pyridin-2-yl)oxy)-2-azabicyclo[2.2.1]heptan-2-yl)methanone]
> 10 | Cc1ccc(-n2nccn2)c(C(=O)N2C(C)C3CC(Nc4cnc(C(F)(F)F)cn4)C2C3)n1 (single isomer, unassigned) [Example 6A, (6-methyl-3-(2H-1,2,3-triazol-2-yl)pyridin-2-yl)((1R*,3R*,4R*,6S*)-3-methyl-6-((5-(trifluoromethyl)pyrazin-2-yl)amino)-2-azabicyclo[2.2.1]heptan-2-yl)methanone]
0.259 | CC1C2CC(Nc3cnc(C(F)(F)F)cn3)C(C2)N1C(=O)c1ccccc1-n1nccn1 (single isomer, unassigned) [Example 68B, (2-(2H-1,2,3-triazol-2-yl)phenyl)((1S*,3R*,4S*,6R*)-3-methyl-6-((5-(trifluoromethyl)pyrazin-2-yl)amino)-2-azabicyclo[2.2.1]heptan-2-yl)methanone]

— patent US9611262B2, “Substituted 2-azabicycles and their use as orexin receptor modulators” (JANSSEN PHARMACEUTICA NV, priority 2014, dated 2017)
